{"source": "paper PMC6092045", "about": "(Chemical communications (Cambridge, England), 2018)", "target": "T1, ERAAP (ER aminopeptidase associated with antigen processing) (Mus musculus, UniProt Q9EQH2)", "T1 sequence (Q9EQH2 1-930)": "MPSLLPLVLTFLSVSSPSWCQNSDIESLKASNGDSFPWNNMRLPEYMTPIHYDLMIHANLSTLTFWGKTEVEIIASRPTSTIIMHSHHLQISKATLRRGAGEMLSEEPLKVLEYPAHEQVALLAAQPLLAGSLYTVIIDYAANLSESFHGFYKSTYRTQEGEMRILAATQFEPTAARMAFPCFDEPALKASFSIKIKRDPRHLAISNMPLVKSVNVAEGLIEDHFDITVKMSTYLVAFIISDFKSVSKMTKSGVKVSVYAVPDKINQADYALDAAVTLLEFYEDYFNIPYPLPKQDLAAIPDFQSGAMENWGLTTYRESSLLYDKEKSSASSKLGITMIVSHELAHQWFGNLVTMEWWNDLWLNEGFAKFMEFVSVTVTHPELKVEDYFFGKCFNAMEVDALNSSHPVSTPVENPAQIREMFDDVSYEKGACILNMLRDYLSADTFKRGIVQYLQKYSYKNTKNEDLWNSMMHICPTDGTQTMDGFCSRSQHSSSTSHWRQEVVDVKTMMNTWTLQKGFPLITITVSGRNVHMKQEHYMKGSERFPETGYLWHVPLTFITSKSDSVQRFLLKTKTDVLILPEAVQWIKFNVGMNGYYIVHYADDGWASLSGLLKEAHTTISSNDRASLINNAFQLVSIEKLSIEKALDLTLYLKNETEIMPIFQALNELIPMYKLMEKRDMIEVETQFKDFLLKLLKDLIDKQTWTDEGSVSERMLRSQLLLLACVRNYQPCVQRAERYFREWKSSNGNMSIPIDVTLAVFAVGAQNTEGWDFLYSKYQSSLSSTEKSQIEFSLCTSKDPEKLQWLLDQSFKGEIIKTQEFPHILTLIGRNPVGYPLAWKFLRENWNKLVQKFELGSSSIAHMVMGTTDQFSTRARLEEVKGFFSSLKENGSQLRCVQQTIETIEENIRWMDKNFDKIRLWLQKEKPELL", "assay": "fluorogenic Ep peptide cleavage assay, dose-response", "format": "biochemical", "data": [{"smiles": "C#CC(=O)c1ccc(Br)cc1F", "note": "[A, 1-(4-bromo-2-fluorophenyl)prop-2-yn-1-one]", "values": [{"measurement": "IC50", "value": 23, "unit": "µM"}]}]}
